Experimental data taken from ChEMBL document CHEMBL1151305, “The biotransformation of some clovanes by botrytis cinerea” (J Nat Prod, 1998).
Active and inactive are the calls of the source. No cut-off for these calls is given here.

Tested on: Botrytis cinerea
Assay: Antifungal activity against Botrytis cinerea assessed as inhibition of radical growth by poisoned-food technique
Type: functional, organism-based

CO[C@H]1CC(C)(C)[C@@H]2CC[C@@]3(C)C[C@]12CC[C@H]3O
Activity: Active
